From ChEMBL document CHEMBL4699513, “Sulfamic acid catalyzed synthesis of new 3,5-[(sub)phenyl]-1H-pyrazole bearing N-isonicotinoyl: And their pharmacological activity evaluation” (2020) come the findings set out here.

Converted amounts (≈) assume the structure as drawn. The source made the active and inactive calls. The rule behind the calls is not given here.

In general, MIC refers to the lowest concentration that inhibits growth of the organism.

For assay [1], the system named is Staphylococcus aureus. As to the kind of experiment: Antimicrobial activity against Staphylococcus aureus ATCC 29737 assessed as zone of inhibition at 4 mg/ml incubated for 24 hrs by agar well diffusion method. To be noted: read-out: IZ. It counts as functional. In general terms: A growth-free zone around the sample is the usual read-out of agar diffusion tests.

In assay [2] the test system is Escherichia coli. As to the kind of experiment: Antimicrobial activity against Escherichia coli ATCC 25922 incubated for 24 hrs by broth microdilution method. It counts as functional.
The subject of assay [3] is Salmonella typhi. As to the kind of experiment: Antimicrobial activity against Salmonella typhi ATCC 23564 incubated for 24 hrs by broth microdilution method. The assay is classed as functional, Salmonella enterica subsp. enterica serovar Typhi. The conditions noted are these: Salmonella enterica. For orientation: Dilution methods test growth across graded concentrations, often in twofold steps.

The subject of assay [4] is Escherichia coli. As to the kind of experiment: Antimicrobial activity against Escherichia coli ATCC 25922 assessed as zone of inhibition at 4 mg/ml incubated for 24 hrs by agar well diffusion method. It counts as functional. To be noted: read-out: IZ.
Assay [5] has as its system Pseudomonas aeruginosa. The assay can be described thus: Antimicrobial activity against Pseudomonas aeruginosa ATCC 19429 incubated for 24 hrs by broth microdilution method. It counts as functional.
Assay [6] in a line: Antioxidant activity assessed as DPPH radical scavenging activity at 250 to 1000 ug/ml after 30 mins by UV-Vis spectrophotometric analysis. The assay is classed as functional. The conditions noted are these: dose microg/ml 250-1000, time 30.0 min. (In general: Loss of DPPH colour is used to gauge radical scavenging.)
The test system of assay [7] is Mycobacterium tuberculosis. The assay can be described thus: Antimycobacterial activity against Mycobacterium tuberculosis H37Rv assessed as bacterial growth inhibition at MIC of 31 uM. The arrangement: scale not given: the % may be the effect or the level left. The assay is classed as functional.
Assay [8] relates to Mycobacterium tuberculosis. As to the kind of experiment: Antimycobacterial activity against Mycobacterium tuberculosis H37Rv assessed as bacterial growth inhibition. It counts as functional.
Assay [9] has as its system Pseudomonas aeruginosa. The assay can be described thus: Antimicrobial activity against Pseudomonas aeruginosa ATCC 19429 assessed as zone of inhibition at 4 mg/ml incubated for 24 hrs by agar well diffusion method. It counts as functional. To be noted: read-out: IZ.
In assay [10] the test system is Staphylococcus aureus. The assay can be described thus: Antimicrobial activity against Staphylococcus aureus ATCC 29737 incubated for 24 hrs by broth microdilution method. It counts as functional.
Assay [11] has as its system Salmonella typhi. As to the kind of experiment: Antimicrobial activity against Salmonella typhi ATCC 23564 assessed as zone of inhibition at 4 mg/ml incubated for 24 hrs by agar well diffusion method. The conditions noted are these: Salmonella enterica, read-out: IZ. The assay is classed as functional, Salmonella enterica subsp. enterica serovar Typhi.
Assay [12] deals with Mycobacterium tuberculosis. The assay can be described thus: Antimycobacterial activity against Mycobacterium tuberculosis H37Rv assessed as bacterial growth inhibition at MIC of 294 uM. It counts as functional. Further details: scale not given: the % may be the effect or the level left.
Assay [13] relates to Mycobacterium tuberculosis. As to the kind of experiment: Antimycobacterial activity against Mycobacterium tuberculosis H37Rv assessed as bacterial growth inhibition at the MIC of 266 uM. The assay is classed as functional. Further details: scale not given: the % may be the effect or the level left.
Assay [14] concerns Mycobacterium tuberculosis. The assay can be described thus: Antimycobacterial activity against Mycobacterium tuberculosis H37Rv assessed as bacterial growth inhibition at MIC of 1.4 uM. It counts as functional. The arrangement: scale not given: the % may be the effect or the level left.
In assay [15] the test system is Mycobacterium tuberculosis. As to the kind of experiment: Antimycobacterial activity against Mycobacterium tuberculosis H37Rv assessed as bacterial growth inhibition at MIC of 1343 uM. The assay is classed as functional. The arrangement: scale not given: the % may be the effect or the level left.
Assay [16] has as its system Mycobacterium tuberculosis. The assay can be described thus: Antimycobacterial activity against Mycobacterium tuberculosis H37Rv assessed as bacterial growth inhibition at MIC of 237 uM. It counts as functional. The arrangement: scale not given: the % may be the effect or the level left.

Take `COc1cccc(C2=CC(c3ccc(Cl)cc3)N(C(=O)c3ccncc3)N2)c1` (centres undefined): the zone of inhibition at 4000 µg/mL in the assay on Staphylococcus aureus [1] was 27.2 mm; in the assay with Escherichia coli [4], 12.3 mm; in the assay with Pseudomonas aeruginosa [9], 12.3 mm. For the same molecule, the MIC in the assay with Escherichia coli [2] was 127 µM (≈ 49.8 µg/mL); in the assay on Salmonella typhi [3], 511 µM (≈ 200 µg/mL); in the assay on Pseudomonas aeruginosa [5], 63 µM (≈ 24.7 µg/mL); in assay [8], 31 µM (≈ 12.1 µg/mL); against Staphylococcus aureus [10] it was 31 µM (≈ 12.1 µg/mL). The outcome in assay [6] was Active. For the same molecule, the Activity in [7] came to 99%.

In the case of `O=C(c1ccncc1)N1NC(c2ccc(F)cc2)=CC1c1ccc(Br)cc1` (centres undefined), the zone of inhibition at 4000 µg/mL in the assay on Staphylococcus aureus [1] worked out at 17.8 mm; in the assay on Salmonella typhi [11], 22.3 mm; in the assay on Pseudomonas aeruginosa [9] it was 12.4 mm. The MIC came to 58 µM (≈ 24.6 µg/mL) in the assay on Escherichia coli [2]; 117 µM (≈ 49.6 µg/mL) against Salmonella typhi [3]; 29 µM (≈ 12.3 µg/mL) against Pseudomonas aeruginosa [5]; 294 µM (≈ 125 µg/mL) in assay [8]; 235 µM (≈ 99.7 µg/mL) in the assay with Staphylococcus aureus [10]. For the same molecule, the Activity in [12] is 96%. In assay [6], the result was Active.

In the case of `Cc1ccc(C2C=C(c3ccc(Cl)cc3)NN2C(=O)c2ccncc2)cc1` (centres undefined), the figures for the zone of inhibition at 4000 µg/mL with Salmonella typhi [11] and with Escherichia coli [4] were 21.4 mm and 12.6 mm, respectively. The MIC against Escherichia coli [2] is 533 µM (≈ 200 µg/mL); in the assay with Salmonella typhi [3] it was 533 µM (≈ 200 µg/mL); against Pseudomonas aeruginosa [5], 133 µM (≈ 50 µg/mL); in [8], 266 µM (≈ 100 µg/mL); in the assay on Staphylococcus aureus [10], 66 µM (≈ 24.8 µg/mL). Moreover, the outcome in assay [6] was Active. Besides, the Activity in assay [13] was 98%.

Take `NNC(=O)c1ccncc1` [ISONIAZID]: in assay [14], the Activity is on record as 99%. The MIC in [8] was found to be 1.4 µM (≈ 0.192 µg/mL).

Turning to `O=C(c1ccncc1)N1NC(c2ccccc2)=CC1c1cccc([N+](=O)[O-])c1` (centres undefined), the zone of inhibition at 4000 µg/mL with Staphylococcus aureus [1] was determined as 8.4 mm; in the assay with Salmonella typhi [11], 15.3 mm; with Escherichia coli [4], 10.2 mm; in the assay on Pseudomonas aeruginosa [9] it was 12.3 mm. The MIC in the assay on Escherichia coli [2] was 268 µM (≈ 99.8 µg/mL); against Salmonella typhi [3] it was 537 µM (≈ 200 µg/mL); with Pseudomonas aeruginosa [5], 67 µM (≈ 24.9 µg/mL); in assay [8], 1340 µM (≈ 500 µg/mL); against Staphylococcus aureus [10], 537 µM (≈ 200 µg/mL). For the same molecule, in assay [6], the result was Active. Further, the Activity in assay [15] came out at 95%.

As for `Cc1ccc(C2=CC(c3ccc(Br)cc3)N(C(=O)c3ccncc3)N2)cc1` (centres undefined), the zone of inhibition at 4000 µg/mL in the assay on Staphylococcus aureus [1] turned out to be 25.4 mm; in the assay on Pseudomonas aeruginosa [9], 20.4 mm. The MIC is 118 µM (≈ 49.6 µg/mL) in the assay with Escherichia coli [2]; 237 µM (≈ 99.6 µg/mL) against Salmonella typhi [3]; 14 µM (≈ 5.88 µg/mL) in the assay with Pseudomonas aeruginosa [5]; 237 µM (≈ 99.6 µg/mL) in assay [8]; 14 µM (≈ 5.88 µg/mL) in the assay on Staphylococcus aureus [10]. Also, in [6], the result was Active. In assay [16], the Activity amounted to 97%.

As to `CN[C@@H]1[C@H](O[C@H]2[C@H](O[C@H]3[C@H](O)[C@@H](O)[C@H](N=C(N)N)[C@@H](O)[C@@H]3N=C(N)N)O[C@@H](C)[C@]2(O)C=O)O[C@@H](CO)[C@H](O)[C@H]1O` [STREPTOMYCIN], the zone of inhibition at 4000 µg/mL in the assay with Staphylococcus aureus [1] turned out to be 30.6 mm; with Salmonella typhi [11] it was 29.1 mm; with Escherichia coli [4] it was 22.2 mm; in the assay with Pseudomonas aeruginosa [9] it was 25 mm. The MIC in the assay on Escherichia coli [2], in the assay on Salmonella typhi [3], in the assay with Pseudomonas aeruginosa [5] and in the assay on Staphylococcus aureus [10] was 5.3 µM (≈ 3.08 µg/mL) throughout.
